Results published in patent US11331299B2, “Medicinal use of serrulatane diterpenes” (The University of Sydney, priority 2016, dated 2022).
“And” between values parts separate entries of the source, which are not always exact repeats. Identical values can stand only once. Like-named read-outs stand apart in the source and are kept apart here.

Legend:
[1] = target: T1, CYP2C8 (Homo sapiens, UniProt P10632); assay: Cytochrome P450 Inhibition (CYP panel); type: in vitro ADME; conditions: probe paclitaxel
T1 construct: Human liver microsomes; from tissue; host or cells: human liver microsomes
T1 sequence (P10632 1-490): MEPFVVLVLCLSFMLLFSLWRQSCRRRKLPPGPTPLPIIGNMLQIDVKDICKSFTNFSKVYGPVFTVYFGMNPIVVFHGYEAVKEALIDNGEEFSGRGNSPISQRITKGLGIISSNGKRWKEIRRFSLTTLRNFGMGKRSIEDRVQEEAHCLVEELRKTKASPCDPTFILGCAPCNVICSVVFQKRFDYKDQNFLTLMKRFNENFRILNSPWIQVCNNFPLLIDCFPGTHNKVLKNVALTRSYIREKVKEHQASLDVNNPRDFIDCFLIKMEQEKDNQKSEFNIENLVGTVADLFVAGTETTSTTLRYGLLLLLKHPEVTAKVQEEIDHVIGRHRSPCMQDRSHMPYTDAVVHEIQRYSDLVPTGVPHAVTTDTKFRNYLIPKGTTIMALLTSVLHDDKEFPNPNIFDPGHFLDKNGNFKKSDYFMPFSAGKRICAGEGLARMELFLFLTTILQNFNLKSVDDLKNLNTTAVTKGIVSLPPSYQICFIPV

[2] = target: T2, ATAD2B (h) bromodomain (Homo sapiens, UniProt Q9ULI0); assay: Epigenetic binding assay, Bromodomain; conditions: 10 μM; read-out: % Inhibition of Control Specific Binding
T2 construct: ATAD2B bromodomain; host or cells: E. coli
T2 sequence (Q9ULI0 951-1066 limits assumed): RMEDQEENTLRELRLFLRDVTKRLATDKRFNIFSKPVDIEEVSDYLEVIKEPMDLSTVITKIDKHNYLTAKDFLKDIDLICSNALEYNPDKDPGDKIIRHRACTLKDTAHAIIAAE

[3] = test system: HUVEC endothelium cells (normal cell line); assay: In vitro cell viability assay (intracellular ATP, 72 hour); type: cell-based; conditions: 10 μM; for % Cell growth: HUVEC, Endothelium (Normal)
[4] = target: MYST4(h) (Homo sapiens, UniProt Q8WYB5); assay: Epigenetic enzyme assay, Histone acetyltransferases (HATs); type: biochemical; conditions: for inhibition at 10 µM: read-out: % Inhibition of Control Values
[5] = test system: IM-9; assay: OncoPanel cell proliferation assay (10-day); type: cell-based, human; conditions: for EC50 / GI50 / IC50: Homo sapiens, IM-9, Myeloma; for EC50: read-out: Cell Count EC50; for GI50: read-out: Cell Count GI50; for IC50: read-out: Cell Count IC50
[6] = target: T3, 5-Lipoxygenase (Homo sapiens, UniProt P09917); assay: 5-Lipoxygenase; type: biochemical; conditions: for remaining activity at 10 µM: assay year 2015, read-out: % Control Response
T3 construct: host or cells: Insect Sf9 cells
T3 sequence (P09917 1-674): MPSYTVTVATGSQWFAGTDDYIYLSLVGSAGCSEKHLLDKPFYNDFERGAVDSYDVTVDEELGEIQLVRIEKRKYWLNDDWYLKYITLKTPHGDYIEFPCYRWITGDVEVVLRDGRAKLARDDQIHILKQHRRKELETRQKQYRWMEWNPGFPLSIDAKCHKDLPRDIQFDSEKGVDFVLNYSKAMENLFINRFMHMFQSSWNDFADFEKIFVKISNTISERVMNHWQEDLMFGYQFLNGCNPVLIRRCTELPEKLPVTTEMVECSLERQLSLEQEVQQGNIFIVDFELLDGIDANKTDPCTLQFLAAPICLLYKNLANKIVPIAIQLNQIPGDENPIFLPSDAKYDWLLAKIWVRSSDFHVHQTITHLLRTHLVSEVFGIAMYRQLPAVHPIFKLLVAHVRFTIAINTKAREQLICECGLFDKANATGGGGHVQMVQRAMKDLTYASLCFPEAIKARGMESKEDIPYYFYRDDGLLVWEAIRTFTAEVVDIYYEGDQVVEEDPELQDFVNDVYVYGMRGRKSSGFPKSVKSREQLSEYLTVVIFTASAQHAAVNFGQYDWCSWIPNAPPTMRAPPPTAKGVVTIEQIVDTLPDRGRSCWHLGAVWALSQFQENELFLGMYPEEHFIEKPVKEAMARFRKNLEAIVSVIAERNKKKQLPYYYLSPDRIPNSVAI

[7] = target: T4, JMJD2B (h) (Homo sapiens, UniProt O94953); assay: Epigenetic enzyme assay, Demethylases (KDMs); type: biochemical; conditions: for inhibition at 10 µM: read-out: % Inhibition of Control Values
T4 sequence (O94953 1-1096): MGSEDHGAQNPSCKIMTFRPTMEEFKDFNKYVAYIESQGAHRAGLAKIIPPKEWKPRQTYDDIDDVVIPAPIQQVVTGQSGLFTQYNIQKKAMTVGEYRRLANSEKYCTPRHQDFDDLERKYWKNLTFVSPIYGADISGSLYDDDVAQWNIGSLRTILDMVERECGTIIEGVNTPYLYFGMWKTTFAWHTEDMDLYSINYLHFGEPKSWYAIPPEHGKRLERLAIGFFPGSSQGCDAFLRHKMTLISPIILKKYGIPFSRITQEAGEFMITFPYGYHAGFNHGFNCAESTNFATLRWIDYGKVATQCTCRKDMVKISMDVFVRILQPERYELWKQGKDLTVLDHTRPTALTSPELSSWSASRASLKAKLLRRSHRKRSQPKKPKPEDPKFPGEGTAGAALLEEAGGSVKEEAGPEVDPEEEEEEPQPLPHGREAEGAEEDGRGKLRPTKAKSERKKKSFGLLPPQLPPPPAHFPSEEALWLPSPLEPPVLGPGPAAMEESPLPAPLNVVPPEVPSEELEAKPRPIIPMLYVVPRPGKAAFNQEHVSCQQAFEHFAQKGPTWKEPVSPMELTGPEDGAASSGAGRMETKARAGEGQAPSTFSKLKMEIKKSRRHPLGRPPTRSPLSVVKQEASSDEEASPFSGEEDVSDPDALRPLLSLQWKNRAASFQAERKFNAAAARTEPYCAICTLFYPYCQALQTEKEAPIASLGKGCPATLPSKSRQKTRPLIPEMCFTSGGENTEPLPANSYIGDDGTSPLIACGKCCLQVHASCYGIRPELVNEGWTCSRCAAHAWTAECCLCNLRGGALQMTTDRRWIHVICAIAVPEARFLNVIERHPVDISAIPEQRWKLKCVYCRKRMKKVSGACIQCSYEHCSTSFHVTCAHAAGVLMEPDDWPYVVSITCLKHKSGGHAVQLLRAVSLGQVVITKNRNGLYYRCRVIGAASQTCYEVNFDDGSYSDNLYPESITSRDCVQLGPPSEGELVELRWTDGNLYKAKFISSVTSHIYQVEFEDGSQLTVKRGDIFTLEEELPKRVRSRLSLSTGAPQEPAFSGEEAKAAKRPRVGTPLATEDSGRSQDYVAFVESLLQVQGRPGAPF

[8] = human, human liver microsomes, read-out: % inhibition
[9] = CYP2C8 (paclitaxel sub.), Human liver microsomes, read-out: % Inhibition of Control Values

MYST4(h), sequence (Q8WYB5 whole entry): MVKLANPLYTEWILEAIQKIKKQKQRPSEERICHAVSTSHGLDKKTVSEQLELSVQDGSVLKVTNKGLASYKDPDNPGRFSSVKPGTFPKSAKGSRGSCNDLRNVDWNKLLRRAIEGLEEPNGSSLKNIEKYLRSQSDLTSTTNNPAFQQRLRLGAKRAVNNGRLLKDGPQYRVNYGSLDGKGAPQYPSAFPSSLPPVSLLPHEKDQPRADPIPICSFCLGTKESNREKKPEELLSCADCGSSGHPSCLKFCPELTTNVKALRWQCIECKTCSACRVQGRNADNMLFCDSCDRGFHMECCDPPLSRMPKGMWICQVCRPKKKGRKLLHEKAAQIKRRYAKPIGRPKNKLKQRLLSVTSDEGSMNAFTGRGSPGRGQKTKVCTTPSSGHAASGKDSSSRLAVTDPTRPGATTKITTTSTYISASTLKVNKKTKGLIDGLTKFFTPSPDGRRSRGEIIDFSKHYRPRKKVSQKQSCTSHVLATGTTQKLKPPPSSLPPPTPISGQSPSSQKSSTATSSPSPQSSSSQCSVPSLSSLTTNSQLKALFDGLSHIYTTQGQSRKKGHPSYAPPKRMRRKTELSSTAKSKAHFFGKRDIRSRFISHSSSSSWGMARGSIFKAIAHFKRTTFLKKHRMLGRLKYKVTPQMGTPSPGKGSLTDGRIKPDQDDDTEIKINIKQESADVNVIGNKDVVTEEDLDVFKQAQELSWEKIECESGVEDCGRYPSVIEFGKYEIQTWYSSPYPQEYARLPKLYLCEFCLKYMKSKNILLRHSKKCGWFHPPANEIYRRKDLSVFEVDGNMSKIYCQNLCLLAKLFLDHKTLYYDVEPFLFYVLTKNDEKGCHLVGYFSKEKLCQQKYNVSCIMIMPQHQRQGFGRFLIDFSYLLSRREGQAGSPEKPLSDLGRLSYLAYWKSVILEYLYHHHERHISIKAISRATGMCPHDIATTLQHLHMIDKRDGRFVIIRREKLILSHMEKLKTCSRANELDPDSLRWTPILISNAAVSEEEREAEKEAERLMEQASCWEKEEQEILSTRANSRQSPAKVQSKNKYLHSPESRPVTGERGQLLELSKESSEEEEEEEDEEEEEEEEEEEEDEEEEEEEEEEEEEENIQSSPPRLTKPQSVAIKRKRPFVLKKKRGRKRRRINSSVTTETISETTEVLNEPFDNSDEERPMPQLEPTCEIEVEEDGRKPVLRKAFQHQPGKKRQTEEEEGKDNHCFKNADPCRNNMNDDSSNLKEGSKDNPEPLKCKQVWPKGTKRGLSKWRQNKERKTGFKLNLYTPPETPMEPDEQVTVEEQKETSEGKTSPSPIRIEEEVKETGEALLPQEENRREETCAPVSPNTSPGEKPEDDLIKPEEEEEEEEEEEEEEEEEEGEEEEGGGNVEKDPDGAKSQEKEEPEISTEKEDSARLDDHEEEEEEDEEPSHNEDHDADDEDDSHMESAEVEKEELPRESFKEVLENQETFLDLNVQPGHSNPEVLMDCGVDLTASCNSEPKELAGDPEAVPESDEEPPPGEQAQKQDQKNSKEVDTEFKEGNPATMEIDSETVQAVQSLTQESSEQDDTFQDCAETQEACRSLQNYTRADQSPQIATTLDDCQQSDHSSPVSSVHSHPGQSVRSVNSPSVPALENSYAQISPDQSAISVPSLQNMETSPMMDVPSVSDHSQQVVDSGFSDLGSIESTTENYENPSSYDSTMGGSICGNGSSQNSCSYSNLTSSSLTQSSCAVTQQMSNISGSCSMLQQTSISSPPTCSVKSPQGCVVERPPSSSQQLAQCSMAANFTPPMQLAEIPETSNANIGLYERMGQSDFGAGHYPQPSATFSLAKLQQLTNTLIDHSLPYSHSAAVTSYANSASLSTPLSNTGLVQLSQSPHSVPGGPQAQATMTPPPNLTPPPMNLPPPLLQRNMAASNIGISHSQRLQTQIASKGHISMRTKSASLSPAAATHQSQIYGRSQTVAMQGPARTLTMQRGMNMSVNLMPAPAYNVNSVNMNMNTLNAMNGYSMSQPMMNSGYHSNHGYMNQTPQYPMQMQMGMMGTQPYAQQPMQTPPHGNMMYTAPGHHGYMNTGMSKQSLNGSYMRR

SMILES	inhibition at 1 µM [1, 8]	inhibition at 1 µM [1, 9]	inhibition at 10 µM [1, 9]	inhibition at 10 µM [2]	% Cell growth [3]	inhibition at 10 µM [4]	EC50 [5]	GI50 [5]	IC50 [5]	remaining activity at 10 µM [6]	inhibition at 10 µM ([7]; 10 μM)	further results
CC(C)=CCC[C@H](CO)[C@@H]1CC[C@@H](C)c2c1cc(C)c(O)c2O [Compound 1, 7,8,18-trihydroxyserrulat-14-ene]	12 to 24%	14%	76%	52%	−90%	25%	0.42 µM	0.42 µM	0.42 µM	79%	65%	Relative cell count (%) Mean ([5]; IM-9, 3.00E+00 microM): 0.1%; Relative cell count (%) Mean ([5]; IM-9, 3.00E+01 microM): 0.0%; Relative cell count (%) Mean ([5]; IM-9, 3.01E−01 microM): 97.5%; Relative cell count (%) Mean ([5]; IM-9, 3.01E−02 microM): 107.3%; Relative cell count (%) Mean ([5]; IM-9, 3.02E−03 microM): 102.8%; Relative cell count (%) Mean ([5]; IM-9, 9.49E+00 microM): 0.1%; Relative cell count (%) Mean ([5]; IM-9, 9.51E−01 microM): 0.0%; Relative cell count (%) Mean ([5]; IM-9, 9.52E−02 microM): 97.7%; Relative cell count (%) Mean ([5]; IM-9, 9.53E−03 microM): 103.1%; Relative cell count (%) Mean ([5]; IM-9, 9.55E−04 microM): 94.9%; IC50 ([6]; concentration-response 10 to 0.01 μM): 2.3 µM and 2.31 µM; % Inhibition of Control Values ([7]; 10 μM): significant inhibitory activity; IC50 ([7]; Table 11, inhibition/concentration-response curve, read-out: IC50): 12 µM
CC(C)=CCC[C@@H]1C(O)Oc2c(C)cc(O)c3c2[C@H]1CC[C@H]3C (stereo partly shown) [Compound 2, 5,18-epoxyserrulat-14-en-8,18-diol]	12 to 24%	12%	52%	25%	97%	39%	3.92 µM	3.92 µM	3.92 µM	53%	16%	
CC(C)=CCC[C@@H]1COc2c(C)cc(O)c3c2[C@H]1CC[C@H]3C [Compound 3, 5,18-epoxy-8-hydroxyserrulat-14-ene]				28%	91%	71%				67%	8%	
CC(C)=CCC[C@H](C)[C@@H]1CC[C@@H](C)c2c1cc(C)c(O)c2O [Compound 4, 7,8-dihydroxyserrulat-14-ene]	12 to 24%	24%	61%		37%		6.71 µM	6.71 µM	6.71 µM			reduction in the growth [3]: no significant reduction; IC50 ([4]; Table 11, inhibition/concentration-response curve): 4.2 µM
